Values after ≈ are worked out from the molar mass of the structure shown.
Assays:
Format in all cases: physicochemical
[1] = Solubility of compound in PBS at pH 7.4 at 300 uM after 24 hrs by HPLC-UV analysis
[2] = Solubility of compound in PBS at pH 7.4
[3] = Solubility of compound in PBS at pH 7.4 by shake flask method

Compound	solubility at 24 h, 300 µM [1]	solubility [2]	solubility thermodynamic [3]
CC(C)C(=O)Nc1ccc([N+](=O)[O-])c(C(F)(F)F)c1 [FLUTAMIDE]	19.9 µg/mL (≈ 72 µM)	19.9 µg/mL (≈ 72 µM)	
COc1ccc(Cl)cc1C(=O)NCCc1ccc(S(=O)(=O)NC(=O)NC2CCCCC2)cc1 [GLYBURIDE]	6.7 µg/mL (≈ 13.6 µM)		5.6 µg/mL (≈ 11.3 µM)
